Assay [1] concerns the target T1, LecA (Pseudomonas aeruginosa, UniProt Q05097).
T1 construct: made in house
Kind of assay: Isothermal titration calorimetry with LecA. The assay is classed as binding. Conditions: for -TΔS (ITC, average) / N (ITC stoichiometry, average) / ΔG (ITC, average) / ΔH (ITC, average): LecA, average ± s.d. How it is done:
(§1) Next, binding of the optimized divalent ligand 17 and its synthetic precursor 16 to LecA was evaluated by fluorescence polarization-based (FP) assays,[47] SPR, and ITC. […] Therefore, fluorescent ligand 17 was analyzed in a direct binding experiment by FP. […] The dissociation constants for 16 were 47.2 ± 11.3 nM (ITC) and 47.8 ± 44.1 nM (steady-state SPR), while for 17, the values were 64.1 ± 31.1 nM and 79.3 ± 24.9 nM (steady-state SPR). For the SPR experiments, Kd was also determined by single-cycle kinetic analysis resulting in approximately five times higher affinity, but the data have limited reliability due to suboptimal fit for the kinetic curves (Figures S13B and S14).[58]−[60]
Figure 3 Evaluation of the optimized fluorescent ligand 17 and its synthetic precursor 16 in LecA binding using thermodynamic analysis by ITC. Data for one representative experiment are depicted. Averages and standard deviation from at least three independent experiments (*two independent experiments). TEXT PRINTED IN THE PICTURE: 16: ΔG [kJ/mol]: -41.9 ± 0.6*; ΔH [kJ/mol]: -89.3 ± 0.8*; -TΔS [kJ/mol]: 47.4 ± 1.4*; N: 0.47 ± 0.03*; Kd [nM]: 47.2 ± 11.3* | 17: ΔG [kJ/mol]: -41.4 ± 1.2; ΔH [kJ/mol]: -83.5 ± 3.2; -TΔS [kJ/mol]: 42.1 ± 4.3; N: 0.50 ± 0.03; Kd [nM]: 64.1 ± 31.1 […]
Isothermal titration calorimetry (ITC) was performed on an iTC200 (Malvern Panalytical) and the data were analyzed using Microcal Origin software (Malvern Panalytical).
LecA (50 µM) in the cell was titrated with ligand (100 µM or 200 µM) in TBS/Ca2+ buffer supplemented with 5% DMSO at 25 °C. Steep titration slopes achieved with the divalent ligands were the result of high amount of protein present and the high binding affinity of the ligand (high ‘value of c’).22 However, LecA protein concentration lower than 50 µM resulted in insufficient signal as a consequence of the low heat released upon binding.
Figure S15: ITC measurements of divalent alkyne ligand 16 with LecA performed in TBS/Ca2+ buffer with 5% […]
Figure S16: ITC measurements of divalent fluorescent ligand 17 with LecA performed in TBS/Ca2+ buffer with […]
50 µM LecA 50 µM LecA 50 µM LecA
(In ITC the heat of successive injections is recorded.)

In assay [2] the target is T1, LecA. Kind of assay: Surface plasmon resonance, LecA binding. How it is done:
as §1, with “S14).[58]−[60] […]” for “S14).[58]−[60]”
Surface plasmon resonance experiments were performed on a BIACORE X100 instrument (GE Healthcare) at 25 °C as described by Zahorska et. al..2 Averages and standard deviations were calculated from three independent experiments. […]
Stability and LecA binding and inhibition of divalent LecA ligands
100 Expe rime ntal data 1:1 fi t 120 Expe rime ntal data 1:1 fi t
100 Expe rime ntal dataSame well1:1 fi t 80 Expe rime ntal data 1:1 fi t
-20 Time [s] -20 Times [s]
100 Expe rime ntal data 1:1 fi t 80 Expe rime ntal data 1:1 fi t mode l
-20 Time [s] -20 Time [s]
Figure S7: SPR of divalent LecA acylhydrazone ligand S36 and divalent fluorescent ligand S31. Sensorgrams obtained from SPR single-cycle kinetics experiments. Five different concentrations of each compound (0, 10, 50, 100, 200 nM) were sequentially injected to obtain the experimental sensorgrams (orange lines), which were then fitted by a 1:1 model (blue lines) on BIACORE evaluation software.
(also on this page, place not known: 561 and ZAA-116 ZAA-112 100012001400 Response [RU] Experimental fit 100012001400 Response [RU] Experimental fit 100012001400 Response [RU] Experimental fit Response [RU] Experimental fit Response [RU] Experimental fit model 100012001400 Response [RU] Experimental data 1:1 fit Same well) […]
0 kon koff kinetic equilibrium#
Figure S13:C Evaluation of the optimized fluorescent ligand Time (min)17 and its synthetic precursor Time (min)16 in LecA […]
binding assays. (A) Competitive binding (top) and direct binding (bottom) by fluorescence polarization. (B) Kinetic and equilibrium analysis by SPR (0.20 #values with limited reliability, equilibrium not fully reached). Data for one representative experiment are depicted in A0.00ZAA-202 and B. Averages and std. dev. from at least three independent 0.00ZAA-203 […]
30 -0.4Expe rime ntal data0 1:1 fi t 25 -0.20Expe rime ntal data 1:1 fi t […]
25 Expe rime ntal data 1:1 fi t Expe rime ntal data 1:1 fi t
15 Molar Ratio 25 Molar Ratio […]
Figure S14: SPR of divalent LecA ligand 16 and divalent fluorescent ligand 17. Sensorgrams obtained from SPR single-cycle kinetics experiments. Five different concentrations of each compound (0, 10, 50, 100, 200 nM) were sequentially injected to obtain the experimental sensorgrams (orange lines), which were then fitted by a 1:1 model (blue lines) on BIACORE evaluation software.

The mark [3] stands for this setting: individual experiments, 50 µM LecA.

“And” between values parts separate entries of the source, which are not always exact repeats. Equal entries are not always repeated.

One may read the koff as a measure of how fast the partners let go of each other. A word on the kon: it is a measure of how fast the partners come together.

T1 sequence (Q05097 whole entry): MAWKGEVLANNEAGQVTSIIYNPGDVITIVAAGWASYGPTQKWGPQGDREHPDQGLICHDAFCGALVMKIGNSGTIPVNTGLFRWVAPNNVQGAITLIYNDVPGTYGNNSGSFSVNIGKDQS

With `O=C(CCc1ccc(O[C@@H]2O[C@H](CO)[C@H](O)[C@H](O)[C@H]2O)cc1)Nc1ccc(CN(CCc2cn(CCOCCOCCOCCNC(=S)Nc3ccc4c(c3)C(=O)OC43c4ccc(O)cc4Oc4cc(O)ccc43)nn2)Cc2ccc(NC(=O)CCc3ccc(O[C@@H]4O[C@H](CO)[C@H](O)[C@H](O)[C@H]4O)cc3)cc2)cc1` [compound 17], on LecA [1] (25 °C), the “-TΔS (ITC, average)” value came to 10.1 ± 1.03 kcal/mol; the “N (ITC stoichiometry, average)” value came to 0.50 ± 0.03; the “ΔG (ITC, average)” value is -9.89 ± 0.287 kcal/mol; the “ΔH (ITC, average)” value was -20 ± 0.765 kcal/mol. At LecA [1] (setting [3]), the “-TΔS (ITC, single titration)” value is 38,3 kJ/mol and 39,8 kJ/mol and 48,2 kJ/mol; the “N (ITC, single titration)” value is 0,46 and 0,52 and 0,51; the “ΔG (ITC, single titration)” value was -42,9 kJ/mol and -41,5 kJ/mol and -39,8 kJ/mol; the “ΔH (ITC, single titration)” value is -81,2 kJ/mol and -81,3 kJ/mol and -88,1 kJ/mol. For the same molecule, the Kd on LecA [1] (read-out: Kd (ITC, average), LecA 50 µM, TBS/Ca2+ with 5% DMSO, 25 °C, average ± s.d. (16: two experiments)) came out at 0.0641 ± 0.0311 µM. Moreover, on LecA [1] (read-out: Kd (ITC, single titration), individual experiments, 50 µM LecA), the Kd is 0.0313 µM and 0.0553 µM and 0.106 µM. The Kd at LecA [2] (read-out: equilibrium Kd (steady-state SPR), values with limited reliability, equilibrium not fully reached) was 0.0793 ± 0.0249 µM. In addition, the Kd at LecA [2] (read-out: kinetic Kd (SPR), single-cycle kinetics, limited reliability, suboptimal fit) was found to be 0.0193 ± 0.0105 µM.

As to `C#CCCN(Cc1ccc(NC(=O)CCc2ccc(O[C@@H]3O[C@H](CO)[C@H](O)[C@H](O)[C@H]3O)cc2)cc1)Cc1ccc(NC(=O)CCc2ccc(O[C@@H]3O[C@H](CO)[C@H](O)[C@H](O)[C@H]3O)cc2)cc1` [compound 16], the Kd on LecA [1] (Kd (ITC, average), LecA 50 µM, TBS/Ca2+ with 5% DMSO, 25 °C, average ± s.d. (16: two experiments)) worked out at 0.0472 ± 0.0113 µM. The Kd on LecA [1] (Kd (ITC, single titration), individual experiments, 50 µM LecA) was 0.036 µM and 0.0585 µM. Moreover, at LecA [1] (25 °C), the “-TΔS (ITC, average)” value is 11.3 ± 0.335 kcal/mol; the “N (ITC stoichiometry, average)” value was determined as 0.47 ± 0.03; the “ΔG (ITC, average)” value was -10 ± 0.14 kcal/mol; the “ΔH (ITC, average)” value is -21.3 ± 0.19 kcal/mol. Also, at LecA [1] (setting [3]), the “-TΔS (ITC, single titration)” value was 48,8 kJ/mol and 45,9 kJ/mol; the “N (ITC, single titration)” value is 0,45 and 0,50; the “ΔG (ITC, single titration)” value was -41,3 kJ/mol and -42,5 kJ/mol; the “ΔH (ITC, single titration)” value is -90,1 kJ/mol and -88,5 kJ/mol. For the same molecule, at LecA [2] (equilibrium Kd (steady-state SPR), values with limited reliability, equilibrium not fully reached), the Kd turned out to be 0.0478 ± 0.0441 µM. Also, the Kd at LecA [2] (kinetic Kd (SPR), single-cycle kinetics, limited reliability, suboptimal fit) is 0.0099 ± 0.0005 µM. Further, on LecA [2] (read-out: koff (SPR)), the dissociation rate constant (koff) was 0.00359 ± 0.0013 s⁻¹. Moreover, the kon on LecA [2] (read-out: kon (SPR)) was found to be 359000 ± 110000 M⁻¹ s⁻¹.

Source of the values: PMC11672137, “High-Affinity Lectin Ligands Enable the Detection of Pathogenic Pseudomonas aeruginosa Biofilms: Implications for Diagnostics and Therapy” (JACS Au, 2024).
